According to publication PMC9414676, “Experimental Studies Indicate That ST-2223, the Antagonist of Histamine H3 and Dopamine D2/D3 Receptors, Restores Social Deficits and Neurotransmission Dysregulation in Mouse Model of Autism” (Pharmaceuticals, 2022):

Tested on: BTBR mice
Experiment: Open field locomotor test (OFL), anxiety-like behavior and locomotion
Type: in vivo
Description: All the mice were randomly divided into nine groups of 5–7 mice each. The mice were injected intraperitonially once daily for 21 days with different doses of ST2223 (2.5, 5, and 10 mg/kg, i.p.), ARP 1 mg/kg or vehicle (1% DMSO in 0.9% normal saline). Group I, B6 mice were injected with vehicle served as control. Group II, BTBR mice were treated with vehicle. Groups III–V, BTBR mice received i.p. injections of different doses of ST2223 (2.5, 5, and 10 mg/kg, i.p.), respectively. Group VI, BTBR mice were injected with ARP (1 mg/kg, i.p.). For abrogation studies, Group VII, BTBR mice were treated with ST2223 (5 mg/kg, i.p.) along with RAM (10 mg/kg, i.p.). Group VIII, B6 mice were co-injected with vehicle and RAM (10 mg/kg, i.p). All treatments and vehicle (VEH) were administered 30–45 min before each behavioral test. The doses of these drugs were selected based on previous reports. Behavioral testing was performed between 9:00 am and 3:00 pm in an order randomized by group and in the following sequence: social approach test (SAT) and open field locomotor test (OFL). The chronic treatment started one week before the behavioral test and was continued for a total of 21 days as described above (Figure 7). Following behavioral tests, i.e., on day 21 of systemic treatment, five of the animals were sacrificed. The animals were deeply anesthetized with pentobarbital (40 mg/kg, i.p., body weight). To wash out the blood, cardiac perfusion was carried out using 0.01 M phosphate-buffered saline (PBS) at pH 7.4. The brains were quickly removed and placed on an ice plate, where the cerebellum, hippocampus, prefrontal cortex, and striatum were excised from the brain and snap-frozen in liquid nitrogen for later LC-MS/MS analysis.
Open field locomotor test (OFL) systematically assesses exploratory activity based on subjecting an animal to an unfamiliar environment whose escape is prevented by surrounding walls. It is a model of anxiety-like behavior, suitable for assessing motor activity as a reaction to an unknown environment, i.e., locomotion motivated by exploration. Both general locomotor activity and anxiety-related behaviors were assessed as the mice were placed individually inside an open field arena (45 × 45 × 30 cm) and were allowed to move freely for 10 min [80]. Mice were introduced into the center area of the arena (23 × 23 cm) and given 5 min habituation before actual behaviors recording. The overall distance moved inside the complete arena and time spent in the center and periphery was recorded for 10 min using CCD camera-assisted motion tracking equipment and software program (EthoVision 3.1, Noldus Information Technology, The Netherlands). Measurements obtained included total distance traveled and center and periphery time spent for […]. After each testing sessions, chambers we cleaned with 70% ethanol, and enough time was allowed for ethanol evaporation and odor dissipation. When evaluating the results, more time spent in the center indicated low levels of anxiety-like behaviors and total distance travelled represented locomotor activity.

[1] = ST-2223 5 mg/kg i.p. chronic, p < 0.05
[2] = ST-2223 10 mg/kg i.p. chronic, p < 0.05

Q: COc1ccccc1N1CCN(CCCCNC(=O)c2ccc3cc(OCCCN4CCCCC4)ccc3c2)CC1 [ST-2223, N-(4-(4-(2-methoxyphenyl)piperazin-1-yl)butyl)-6-(3-(piperidin-1-yl)propoxy)-2-naphthamide] was tested. Which “time spent in the periphery” value (ST-2223 2.5 mg/kg i.p. chronic) did it give?
A: no group differences

Q: What about the “time spent in the center of the open field” value (“time spent in the center” for short) (ST-2223 2.5 mg/kg i.p. chronic, p = 0.84) of the same compound?
A: failed to decrease the time spent in the center of the arena to a significant level

Q: And the “time spent in the center” value [1]?
A: significantly less time in the central compartment

Q: And the “time spent in the periphery” value [1]?
A: significantly corrected the decreased time

Q: And the “total distance travelled vs VEH-treated BTBR mice” value [1]?
A: significantly decreased the total distance travelled

Q: What about the “time spent in the periphery” value (ST-2223 10 mg/kg i.p. chronic) of the same compound?
A: no group differences

Q: And the “time spent in the center” value [2]?
A: significantly less time in the central compartment

Q: And the “total distance travelled vs VEH-treated BTBR mice” value [2]?
A: significantly decreased the total distance travelled
